Measured values from patent publication US7879886B2, “Iron binding agents” (University of Florida Research Foundation, Inc., priority 1998, dated 2011).
Read-outs that look alike come from different tables or passages of the source.

Columns and labels:
[1] = Iron clearance efficiency in the normal (not iron-loaded) bile duct-cannulated Sprague-Dawley rat; format: in vivo
Description: (§1) One screen for efficacy is the normal (not iron-loaded) Sprague-Dawley rat with a cannulated bile duct. In this model, collection of bile and urine after oral or parenteral administration of a chelator permits the rapid determination of the magnitude and route(s) of excretion. The iron-loaded Cebus apella monkey is used as a better screen, however. To date, the behavior of iron chelators in this primate model has been-quantitatively predictive of both the magnitude and routes of iron clearance after human administration.
(§2) The primary measure of activity is the efficiency of the compound, as assessed in both rodent and primate models and compared with sc DFO. Compound efficiency is a comparative evaluation of how much iron excretion a chelator promotes relative to the theoretical amount. For example, the hexacoordinate chelator DFO forms 1:1 iron complexes with a formation constant of 3×10^30 M^−1 (Anderegg et al., Helv. Chim. Acta 46: 1409-1422 (1963)); if the efficiency were 100%, one mmol of DFO administered to an animal would cause one mmol of the iron complex to be excreted. In fact, only 5% of the calculated iron is excreted when DFO is administered to humans (Kirking et al., Clin. Pharmacol. 10:775-783 (1991)). In the case of the DFT analogues, the efficiency calculation is based on the formation of a 2:1 complex with a formation constant assumed to be similar to that of the parent compound, 4×10^29 M^−1 (Anderegg et al., J. Chem. Soc., Chem. Commun. 1194-1196 (1990).

[2] = Iron clearance efficiency in the iron-loaded Cebus apella monkey; format: in vivo
Description: as §1, §2

[3] = cited from earlier work
malarial parasites = assay: Impact on malarial parasites in vitro (48 h exposure, 48 h after removal, percent parasitemia); format: cell-based, Plasmodium
Description: Studies can be done on the developmental stages and morphology of the malarial parasite in vitro; the minimum effective concentration required for cytotoxicity can be shown. The target structures include the nuclear envelope, the membrane of the food vacuole, accumulation of electron-dense substances in the mitochondria, undigested materials, and dilation of the endoplasmic reticulum.
In order to determine the concentration at which a compound is cytostatic and cytotoxic, the parasites are exposed to the drug using at least two different concentrations. After 48 h the chelator is removed, and the parasites are incubated for an additional 48 h. The percent parasitemia is determined at both time points (48 and 96 h). The effects of the various compounds on malarial parasites seem quite varied. For the purposes of comparison, DFO can serve as the positive control. […] However, at a concentration of 10^−4 M, DFO is cytotoxic; the plasmodia die during the 48-h incubation with the compound.
The compounds designated as 8 and 22 in Table I are active in this in vitro assay. Others can be similarly tested.

[4] = administered to humans; cited from earlier work

SMILES | % Efficiency of Iron Clearance ([1]; route not given) | % Efficiency of Iron Clearance ([2]; 150 μmol/kg po) | % Efficiency of Iron Clearance ([1]; po) | % Efficiency of Iron Clearance ([1]; sc) | % Efficiency of Iron Clearance ([2]; 300 μmol/kg po) | also measured
C[C@]1(C(=O)O)CSC(c2ncccc2O)=N1 [1(S), desferrithiocin, reference compound] | 5.5 ± 3.2% | 16.1 ± 8.5% |  |  |  | Formation constant of iron complex ([3]; 2:1 complex): 4e+29 M⁻¹
O=C(O)[C@H]1CSC(c2ncccc2O)=N1 [2(S), (S)-desmethyldesferrithiocin] |  | 4.8 ± 2.7% | 2.4 ± 0.56 (po) % | 1.8 ± 0.7 (sc) % | 8.0 ± 2.5% | % Efficiency of Iron Clearance ([2]; 300 μmol/kg sc): 8.3 ± 2.7%
O=C(O)C1CSC(c2ccc(O)cc2O)=N1 [5(R), 4,5-Dihydro-2-(2-,4-dihydroxyphenyl)-4-thiazolecarboxylic acid] | ≦0.5% | 1.7 ± 0.8% |  |  |  | 
O=C(O)C1CSC(c2ccc(O)cc2O)=N1 [5(S), 4,5-Dihydro-2-(2-,4-dihydroxyphenyl)-4-thiazolecarboxylic acid] |  | 4.2 ± 1.4% | 2.4 ± 0.9 (po) % |  | 5.3 ± 1.7% | % Efficiency of Iron Clearance ([2]; 150 μmol/kg in H2O sc): 5.6 ± 0.9%; % Efficiency of Iron Clearance ([2]; 300 μmol/kg in H2O po): 4.8 ± 1.4%
COc1cccc(C2=N[C@@H](C(=O)O)CS2)c1O [6(S), (S)-4,5-dihydro-2-(2-hydroxy-3-methoxyphenyl)-4-thiazolecarboxylic acid] |  |  | 0.9 ± 0.3 (po) % | 0.5 ± 0.9 (sc) % |  | 
O=C(O)c1ccc(C2=N[C@@H](C(=O)O)CS2)c(O)c1 [7(S), (S)-4,5-Dihydro-2-(2-hydroxy-4-carboxyphenyl)-4-thiazolecarboxylic acid] | ≦0.5% |  |  |  |  | 
C[C@]1(C(=O)O)CSC(c2ccccc2O)=N1 [9(S)] |  |  | 2.7 ± 0.5 (po) % |  | 13.1 ± 4% | % Efficiency of Iron Clearance ([2]; 75 μmol/kg po): 21.5 ± 12%; % Efficiency of Iron Clearance ([2]; 300 μmol/kg sc): 43.3 ± 8.5%
O=C(O)C1CCSC(c2ncccc2O)=N1 [14(S), 2-(3-hydroxy-2-pyridinyl)4H-5,6-dihydro-1,3-thiazine-4-carboxylic acid] | ≦0.5% |  |  |  |  | 
O=C(O)[C@H]1CSC(Cc2ccccc2O)=N1 [15(S), (S)-4,5-Dihydro-2-(2-hydroxyphenylmethyl)-4-thiazolecarboxylic acid] | ≦0.5% |  |  |  |  | 
O=C(O)C[C@H]1CSC(c2ccccc2O)=N1 [16(S), (S)-4,5-Dihydro-2-(2-hydroxyphenyl)-4-thiazoleacetic acid] | ≦0.5% |  |  |  |  | 
O=C(O)CC[C@H]1CSC(c2ccccc2O)=N1 [17(S), (S)-4,5-dihydro-2-(2-hydroxyphenyl)-4-thiazolepropanoic acid] | ≦0.5% |  |  |  |  | 
C[C@]1(C(=O)O)CSC(c2ccc(O)cc2O)=N1 [28(S), 4′-hydroxydesazaDFT] | ≦0.5% | 13.4 ± 5.8% |  |  |  | % Efficiency of Iron Clearance ([2]; 75 μmol/kg po): 17.7 ± 3.9%
CN(O)C(=O)[C@H]1CSC(c2ncccc2O)=N1 [Compound 22, (S)-desmethyldesferrithiocin, N-methylhydroxamate] |  | 6.9 ± 3.0% | 3.1 ± 0.4 (po) % | 5.3 ± 0.7 (sc) % | 13.2 ± 7.7% | % Efficiency of Iron Clearance ([2]; 150 μmol/kg sc): 11.7 ± 5.5%; Activity in the in vitro malarial parasite assay (malarial parasites): active
O=C(C1CSC(c2ncccc2O)=N1)N(O)Cc1ccccc1 (stereo not shown) [Compound 24] |  |  | 1 ± 0.1 (po) % | 1.4 ± 0.8 (sc) % | ≦0.5% | % Efficiency of Iron Clearance ([2]; 300 μmol/kg sc): ≦0.5%
Oc1cccnc1C1=N[C@@H](N(O)CCOCCOCCN(O)[C@H]2CSC(c3ncccc3O)=N2)CS1 [Compound 25, (S,S)-N^1,N^8-bis[4,5-dihydro-2-(3-hydroxy-2-pyridinyl)-4-thiazoyl]-N^1,N^8-dihydroxy-3,6-dioxa-1,8-octanediamine] |  |  | 4.6 ± 2.1 (po) % | 20.6 ± 1.3 (sc) % |  | 
CC(=O)N(O)CCCCCNC(=O)CCC(=O)N(O)CCCCCNC(=O)CCC(=O)N(O)CCCCCN [DFO] |  |  |  |  |  | Efficiency: calculated iron excreted [4]: 5%; Effect on plasmodia (malarial parasites; 48-h incubation at 10^−4 M): cytotoxic; Malarial growth after the compound is removed (malarial parasites; after 48-h exposure at 10^−5 M, compound removed): normal growth resumes; Effect on malarial growth (malarial parasites; initial 48-h continuous exposure at 10^−5 M): inhibits malarial growth; Formation constant of iron complex ([3]; 1:1 iron complex): 3e+30 M⁻¹
